Laboratory results from patent US20260165974A1, “Moisture-proof L-a-glycerylphosphorylcholine” (NANJING NUTRABUILDING BIO-TECH CO., LTD., priority 2023, published 2026).
One block for each compound: values may come before it.

Legend:
Format in all cases: physicochemical
[1] = Hygroscopicity: moisture absorption weight gain in artificial climate box; details: temperature 25° C., relative humidity 75%
Method: Specific test method: A dry glass weighing bottle with plug (outer diameter 50 mm, height 15 mm) was placed in an artificial climate box (temperature 25° C., relative humidity 75%) one day before the test, and was accurately weighed (m1). An appropriate amount of test sample was spread in the weighing bottle (thickness of test sample is generally about 1 mm), and it was accurately weighed (m2). The weighing bottle was opened and placed with the bottle cap under the above-mentioned constant temperature and humidity conditions. The weighing bottle was taken out at 5 min, 10 min, 20 min, 30 min, 60 min, 120 min and 180 min respectively, and accurately weighed (m3). The weight gain percentage was calculated according to the calculation formula: weight gain percentage=100%× (m3−m2)/(m2−m1).

[2] = Score of fluidity, adhesiveness and deliquescence at 25° C./75% RH
Method: (§1) Study method: 5 g of sample was weighed into a weighing dish (60*30 mm), and placed in an open position at 25° C./75% RH to observe the moisture-proof effect for 0˜3 h.
(§2) See Table 3-1 for the scoring standards of some examples. See Table 3-2 for the score results of fluidity, adhesiveness and deliquescence of moisture-proof L-α-glycerylphosphorylcholine.

[3] = Passing rate of 20-mesh sieve at 25° C./75% RH
Method: as §1, §2

[4] = Fluidity and repose angle before and after open storage at 25° C./75% RH for 0~3 h
Method: as §1

[5] = after open placing at 25° C./75% RH, 3 h
[6] = before placing at 25° C./75% RH

weight gain percentage ([1]; 5 min): 3.0% | weight gain percentage ([1]; 10 min): 4.2% | weight gain percentage ([1]; 20 min): 7.4% | weight gain percentage ([1]; 30 min): 9.5% | weight gain percentage ([1]; 60 min): 12.3% | weight gain percentage ([1]; 120 min): 14.6% | weight gain percentage ([1]; 180 min): 18.5%
Structure (SMILES): C[N+](C)(C)CCOP(=O)([O-])OC[C@H](O)CO [Raw material 1, L-α-glycerylphosphorylcholine]

weight gain percentage ([1]; 5 min): 3.2% | weight gain percentage ([1]; 10 min): 4.1% | weight gain percentage ([1]; 20 min): 7.2% | weight gain percentage ([1]; 30 min): 9.4% | weight gain percentage ([1]; 60 min): 12.6% | weight gain percentage ([1]; 120 min): 14.4% | weight gain percentage ([1]; 180 min): 18.7%
Structure (SMILES): C[N+](C)(C)CCOP(=O)([O-])OC[C@H](O)CO [Raw material 2, L-α-glycerylphosphorylcholine]

score of fluidity, adhesiveness and deliquescence ([2]; 5 min): 9 | score of fluidity, adhesiveness and deliquescence ([2]; 10 min): 0 | score of fluidity, adhesiveness and deliquescence ([2]; 20 min): 0 | score of fluidity, adhesiveness and deliquescence ([2]; 30 min): 0 | score of fluidity, adhesiveness and deliquescence ([2]; 60 min): 0 | score of fluidity, adhesiveness and deliquescence ([2]; 120 min): 0 | score of fluidity, adhesiveness and deliquescence ([2]; 180 min): 0 | passing rate of 20-mesh sieve ([3]; 5 min): 97% | passing rate of 20-mesh sieve ([3]; 10 min): 35% | passing rate of 20-mesh sieve ([3]; 20 min): 24% | passing rate of 20-mesh sieve ([3]; 30 min): 2% | passing rate of 20-mesh sieve ([3]; 60 min): 0% | passing rate of 20-mesh sieve ([3]; 120 min): 0% | passing rate of 20-mesh sieve ([3]; 180 min): 0% | Appearance and fluidity, After [4, 5]: All deliquescent and | Repose angle, After [4, 5]: unmeasurable | Appearance and fluidity, Before [4, 6]: Crystalloid/particle, good | Repose angle, Before [4, 6]: 41°
Structure (SMILES): C[N+](C)(C)CCOP(=O)([O-])OC[C@H](O)CO [Raw material, L-α-glycerylphosphorylcholine]
